According to US20220008359A1, “COMBINATION ANTI-CANCER PRODUCTS AND METHODS” (priority 2020, published 2022):
Marks after values point to notes of the source that are not given here.

Tests used:
CD8+ T cells = experiment: Viability and effects on CD8+ T cells after 72 hours of exposure; assay type: cell-based
Method: (§1) In vitro assays designed to assess the viability and effects of GZ17-6.02, GZ17-6.02.02, its metabolites as single agents, and the metabolites in combination effects of CD8+ T cells and CD56+ natural killer cells after 72 hours of exposure. Test agents used included 6.02 (77% Isovanillin+13% Harmine+10% Curcumin), 6.02.02 (77% Isovanillin+13% Harmine+8.5% Curcumin sulfate tetrabutylammonium salt+1.5% Curcumin β-D-glucuronide), Curcumin metabolites combination (85% Curcumin sulfate tetrabutylammonium salt+15% Curcumin β-D-glucuronide), Curcumin metabolites single agents (single agent Curcumin sulfate tetrabutylammonium salt, or single agent Curcumin 3-D-glucuronide).

[1] = system: CD56+ natural killer cells; experiment: Viability and effects on CD56+ natural killer cells after 72 hours of exposure; assay type: cell-based
Method: as §1

[2] = system: H1975 cells (wild type sensitive); experiment: In-cell immunostaining of protein expression and phosphorylation, H1975 wild type cells; assay type: cell-based, human; conditions: 1975 WT; 6 h; GZ17-6.02 2 mM final curcumin, osimertinib 100 nM; vehicle 100%
Method: (§2) […] Cells were fixed in place 6 hours after treatment and immunostaining of single cells performed to determine the levels of each protein/phosphor-protein (n=3+/−SD). * p<0.05 less than vehicle control; # p<0.05 greater than vehicle control.
(§3) Assessments of protein expression and protein phosphorylation. Multi-channel fluorescence HCS microscopes perform true in-cell western blotting. Three independent cultures derived from three thawed vials of cells of a tumor were sub-cultured into individual 96-well plates. Twenty-four hours after plating, the cells are transfected with a control plasmid or a control siRNA, or with an empty vector plasmid or with plasmids to express various proteins. After another 24 hours, the cells are ready for drug exposure(s). At various time-points after the initiation of drug exposure, cells are fixed in place using paraformaldehyde and using Triton X100 for permeabilization. Standard immunofluorescent blocking procedures are employed, followed by incubation of different wells with a variety of validated primary antibodies and subsequently validated fluorescent-tagged secondary antibodies are added to each well. The microscope determines the background fluorescence in the well and in parallel randomly determines the mean fluorescent intensity of 100 cells per well.

H1650 cells (wild type) = experiment: In-cell immunostaining of protein expression and phosphorylation, H1650 wild type cells; assay type: cell-based, human; conditions: 1650 WT; 6 h; GZ17-6.02 2 mM final curcumin, osimertinib 100 nM; vehicle 100%
Method: as §3

[3] = system: afatinib-resistant (AR) H1975 cells; experiment: In-cell immunostaining of protein expression and phosphorylation, afatinib-resistant H1975 cells; assay type: cell-based, human; conditions: 1975 AR; 6 h; GZ17-6.02 2 mM final curcumin, osimertinib 100 nM; vehicle 100%
Method: as §2
Generation of erlotinib, afatinib and osimertinib-resistant cells. Cells were incubated in vitro with increasing concentrations of vehicle control or erlotinib or osimertinib until after ˜6 weeks the HCC827 and H1975 and H1650 cells grew with similar kinetics to sensitive cells in either erlotinib ([…]) or osimertinib ([…]), respectively. Afatinib-resistant cells were created in vivo by repeated high dosing until tumors disappeared and then regrew, as previously described.
as §3

H1975 cells = experiment: Trypan blue cell death assay, H1975 cells (wild type, afatinib- and osimertinib-resistant); assay type: cell-based, human; conditions: osimertinib-resistant H1975 and H1650 cells, 24 h
Method: Detection of cell death by trypan blue assay. Cells were treated with vehicle control or with drugs alone or in combination for 24 h. At the indicated time points cells were harvested by trypsinization and centrifugation. Cell pellets were resuspended in PBS and mixed with trypan blue agent. Viability was determined microscopically using a hemocytometer. Five hundred cells from randomly chosen fields were counted and the number of dead cells was counted and expressed as a percentage of the total number of cells counted.
H1650, wild type sensitive and afatinib resistant (AR) H1975 and erlotinib resistant (ER) HCC827 cells were treated with vehicle, erlotinib (500 nM), afatinib (500 nM), GZ17-6.02 (2 mM curcumin final) or the drugs in combination for 24 h. […] In a separate study, cells were treated with vehicle, osimertinib (100 nM), GZ17-6.02 (2 mM curcumin final) or the drugs in combination for 24 h.
Osimertinib-resistant H1975 and H1650 cells were generated as described and studied to determine if GZ17-6.02 interacts with pemetrexed to kill NSCLC cells. H1975 and H1650 cells (wild type sensitive and osimertinib resistant (OR)) were treated with vehicle, erlotinib (500 nM), afatinib (500 nM), osimertinib (100 nM), GZ17-6.02 (2 mM curcumin final) or the drugs in combination for 24 h. […]

COc1cc(/C=C/C(=O)CC(=O)/C=C/c2ccc(O[C@@H]3O[C@H](C(=O)O)[C@@H](O)[C@H](O)[C@H]3O)c(OC)c2)ccc1O [Curcumin B-D-Glucuronide, Curcumin β-D-glucuronide]
CD8 + T Cells % of control (CD8+ T cells; 0.03 μM): 124.35 % of control
CD8 + T Cells % of control (CD8+ T cells; 0.3 μM): 114.54 % of control
CD8 + T Cells % of control (CD8+ T cells; 3 μM): 118.58 % of control
CD8 + T Cells % of control (CD8+ T cells; 30 μM): 110.23 % of control
CD56 + NK Cells % of control ([1]; 0.03 μM): 98.08 % of control
CD56 + NK Cells % of control ([1]; 0.3 μM): 100.22 % of control
CD56 + NK Cells % of control ([1]; 3 μM): 93.81 % of control
CD56 + NK Cells % of control ([1]; 30 μM): 95.28 % of control

C=CC(=O)Nc1cc(Nc2nccc(-c3cn(C)c4ccccc34)n2)c(OC)cc1N(C)CCN(C)C [OSI]
ATG5 [2]: 111%
Beclin1 [2]: 113# %
CD95 [2]: 102%
CHOP [2]: 109%
ERBB1 [2]: 99%
ERBB2 [2]: 100%
ERBB3 [2]: 101%
ERBB4 [2]: 99%
ERK2 [2]: 99%
FAS-L [2]: 101%
FLIP-s [2]: 85* %
GRP78 [2]: 119# %
HDAC1 [2]: 97%
HDAC2 [2]: 99%
HDAC3 [2]: 96%
HDAC4 [2]: 93%
HDAC5 [2]: 100%
HDAC6 [2]: 105%
HDAC7 [2]: 103%
HDAC8 [2]: 99%
HDAC9 [2]: 98%
HDAC10 [2]: 99%
HDAC11 [2]: 96%
IDO1 [2]: 99%
JNK1/2 [2]: 101%
MHCA [2]: 96%
NOXA [2]: 100%
ODC [2]: 100%
P-AKT T308 [2]: 81* %
P-AMPKα T172 [2]: 101%
P-ATG13 S318 [2]: 126# %
P-ATM S1980 [2]: 100%
P-B1 [2]: 73* %
P-B2 [2]: 101%
P-B3 [2]: 100%
P-B4 [2]: 102%
P-ERK1/2 [2]: 70* %
P-JAK2 [2]: 83* %
P-JNK1/2 [2]: 89%
P-MEK1/2 [2]: 83* %
P-NFκB S536 [2]: 100%
P-PDGFRβ [2]: 89%
P-PERK T980 [2]: 109%
P-SRC Y416 [2]: 95%
P-SRC Y527 [2]: 102%
P-STAT3 Y705 [2]: 92%
P-STAT5 Y694 [2]: 88%
P-TAZ S89 [2]: 114# %
P-ULK1 S317 [2]: 105%
P-ULK1 S757 [2]: 63* %
P-YAP S127 [2]: 113# %
P-c-KIT [2]: 99%
P-c-MET [2]: 92%
P-eIF2α S51 [2]: 109%
P-mTOR S2448 [2]: 68* %
P-mTOR S2481 [2]: 68* %
P-β-catenin [2]: 111%
PD-L1 [2]: 99%
PD-L2 [2]: 97%
PDGFRβ [2]: 100%
PP1 [2]: 104%
PUMA [2]: 99%
TAZ [2]: 100%
Total ERK2 [2]: 99%
YAP [2]: 99%
c-KIT [2]: 98%
c-MET [2]: 101%
p70 S6K T389 [2]: 92%
β-catenin [2]: 98%
ATG5 (H1650 cells (wild type)): 106%
Beclin1 (H1650 cells (wild type)): 103%
CD95 (H1650 cells (wild type)): 100%
CHOP (H1650 cells (wild type)): 106%
ERBB1 (H1650 cells (wild type)): 98%
ERBB2 (H1650 cells (wild type)): 94%
ERBB3 (H1650 cells (wild type)): 100%
ERBB4 (H1650 cells (wild type)): 100%
ERK2 (H1650 cells (wild type)): 100%
FAS-L (H1650 cells (wild type)): 104%
FLIP-s (H1650 cells (wild type)): 102%
GRP78 (H1650 cells (wild type)): 111%
HDAC1 (H1650 cells (wild type)): 99%
HDAC2 (H1650 cells (wild type)): 98%
HDAC3 (H1650 cells (wild type)): 98%
HDAC4 (H1650 cells (wild type)): 101%
HDAC5 (H1650 cells (wild type)): 99%
HDAC6 (H1650 cells (wild type)): 98%
HDAC7 (H1650 cells (wild type)): 99%
HDAC8 (H1650 cells (wild type)): 101%
HDAC9 (H1650 cells (wild type)): 100%
HDAC10 (H1650 cells (wild type)): 98%
HDAC11 (H1650 cells (wild type)): 100%
IDO1 (H1650 cells (wild type)): 100%
JNK1/2 (H1650 cells (wild type)): 104%
MHCA (H1650 cells (wild type)): 103%
NOXA (H1650 cells (wild type)): 101%
ODC (H1650 cells (wild type)): 104%
P-AKT T308 (H1650 cells (wild type)): 90%
P-AMPKα T172 (H1650 cells (wild type)): 98%
P-ATG13 S318 (H1650 cells (wild type)): 115# %
P-ATM S1980 (H1650 cells (wild type)): 98%
P-B1 (H1650 cells (wild type)): 61* %
P-B2 (H1650 cells (wild type)): 97%
P-B3 (H1650 cells (wild type)): 96%
P-B4 (H1650 cells (wild type)): 96%
P-ERK1/2 (H1650 cells (wild type)): 82* %
P-JAK2 (H1650 cells (wild type)): 86* %
P-JNK1/2 (H1650 cells (wild type)): 91%
P-MEK1/2 (H1650 cells (wild type)): 97%
P-NFκB S536 (H1650 cells (wild type)): 83* %
P-PDGFRβ (H1650 cells (wild type)): 93%
P-PERK T980 (H1650 cells (wild type)): 104%
P-SRC Y416 (H1650 cells (wild type)): 83* %
P-SRC Y527 (H1650 cells (wild type)): 105%
P-STAT3 Y705 (H1650 cells (wild type)): 95%
P-STAT5 Y694 (H1650 cells (wild type)): 98%
P-TAZ S89 (H1650 cells (wild type)): 101%
P-ULK1 S317 (H1650 cells (wild type)): 107%
P-ULK1 S757 (H1650 cells (wild type)): 81* %
P-YAP S127 (H1650 cells (wild type)): 102%
P-c-KIT (H1650 cells (wild type)): 92%
P-c-MET (H1650 cells (wild type)): 94%
P-eIF2α S51 (H1650 cells (wild type)): 114%
P-mTOR S2448 (H1650 cells (wild type)): 96%
P-mTOR S2481 (H1650 cells (wild type)): 87* %
P-β-catenin (H1650 cells (wild type)): 102%
PD-L1 (H1650 cells (wild type)): 97%
PD-L2 (H1650 cells (wild type)): 97%
PDGFRβ (H1650 cells (wild type)): 106%
PP1 (H1650 cells (wild type)): 103%
PUMA (H1650 cells (wild type)): 100%
TAZ (H1650 cells (wild type)): 101%
Total ERK2 (H1650 cells (wild type)): 100%
YAP (H1650 cells (wild type)): 98%
c-KIT (H1650 cells (wild type)): 100%
c-MET (H1650 cells (wild type)): 98%
p70 S6K T389 (H1650 cells (wild type)): 99%
β-catenin (H1650 cells (wild type)): 101%
ATG5 [3]: 105%
Beclin1 [3]: 109%
CHOP [3]: 102%
ERBB1 [3]: 100%
ERBB2 [3]: 102%
ERBB3 [3]: 101%
ERBB4 [3]: 98%
FLIP-s [3]: 79* %
GRP78 [3]: 103# %
NOXA [3]: 100%
P-AKT T308 [3]: 86* %
P-AMPKα T172 [3]: 102%
P-ATG13 S318 [3]: 121# %
P-ATM S1980 [3]: 101%
P-B1 [3]: 76* %
P-B2 [3]: 101%
P-B3 [3]: 100%
P-B4 [3]: 97%
P-MEK1/2 [3]: 82* %
P-PERK T980 [3]: 111%
P-STAT3 Y705 [3]: 92%
P-STAT5 Y694 [3]: 95%
P-ULK1 S317 [3]: 99%
P-ULK1 S757 [3]: 65* %
P-eIF2α S51 [3]: 105%
P-mTOR S2448 [3]: 66* %
P-mTOR S2481 [3]: 71* %
PP1 [3]: 112%
PUMA [3]: 98%
Total ERK2 [3]: 100%
p70 S6K T389 [3]: 99%

C#Cc1cccc(Nc2ncnc3cc(OCCOC)c(OCCOC)cc23)c1 [erlotinib, Erlotinib]
ability to enhance GZ17-6.02 killing (H1975 cells): abolished

C=CC(=O)Nc1cc(Nc2nccc(-c3cn(C)c4ccccc34)n2)c(OC)cc1N(C)CCN(C)C [osimertinib, Osimertinib]
ability to enhance GZ17-6.02 killing (H1975 cells): abolished

Curcumin sulfate tetrabutylammonium salt
CD8 + T Cells % of control (CD8+ T cells; 0.03 μM): 107.62 % of control
CD8 + T Cells % of control (CD8+ T cells; 0.3 μM): 170.61 % of control
CD8 + T Cells % of control (CD8+ T cells; 3 μM): 154.26 % of control
CD8 + T Cells % of control (CD8+ T cells; 30 μM): 143.23 % of control
CD56 + NK Cells % of control ([1]; 0.03 μM): 104.14 % of control
CD56 + NK Cells % of control ([1]; 0.3 μM): 103.40 % of control
CD56 + NK Cells % of control ([1]; 3 μM): 110.77 % of control
CD56 + NK Cells % of control ([1]; 30 μM): 107.76 % of control
